Laboratory results as given in the NIST ThermoML archive (doi:10.1016/j.jct.2016.12.032).

Experiment: xn = mol fraction of the nth substance listed
Conditions: 100 kPa, Liquid; for viscosity: Capillary tube (Ostwald / Ubbelohde) method; for mass density: Vibrating tube method

CC1CC(=O)O1 (stereo not drawn) [4-methyl-2-oxetanone] + CCCC[n+]1ccn(C)c1.O=S(=O)([N-]S(=O)(=O)C(F)(F)F)C(F)(F)F
Conditions | mass density [kg/m3] | viscosity [mPa·s]
293.15 K, x2 = 0 | 1055.93 | 1.68
293.15 K, x2 = 0.0493 | 1119.77 | 2.14
293.15 K, x2 = 0.1001 | 1167.52 | 2.75
293.15 K, x2 = 0.1526 | 1207.48 | 3.44
293.15 K, x2 = 0.2001 | 1240.41 | 4.75
293.15 K, x2 = 0.3001 | 1291.51 | 7.22
293.15 K, x2 = 0.4013 | 1329.17 | 10.69
293.15 K, x2 = 0.5004 | 1358.85 | 15.69
293.15 K, x2 = 0.5995 | 1382.95 | 22.26
293.15 K, x2 = 0.6929 | 1401.02 | 29.27
293.15 K, x2 = 0.814 | 1415.81 | 40.15
293.15 K, x2 = 0.9001 | 1434.72 | 50.31
298.15 K, x2 = 0 | 1050.68 | 1.55
298.15 K, x2 = 0.0493 | 1114.58 | 1.97
298.15 K, x2 = 0.1001 | 1162.33 | 2.52
298.15 K, x2 = 0.1526 | 1202.28 | 3.17
298.15 K, x2 = 0.2001 | 1235.24 | 4.38
298.15 K, x2 = 0.3001 | 1286.4 | 6.59
298.15 K, x2 = 0.4013 | 1324.12 | 9.61
298.15 K, x2 = 0.5004 | 1353.84 | 13.44
298.15 K, x2 = 0.5995 | 1377.94 | 18.55
298.15 K, x2 = 0.6929 | 1396.05 | 24.32
298.15 K, x2 = 0.814 | 1410.84 | 32.91
298.15 K, x2 = 0.9001 | 1429.79 | 41.25
303.15 K, x2 = 0 | 1045.31 | 1.48
303.15 K, x2 = 0.0493 | 1109.25 | 1.83
303.15 K, x2 = 0.1001 | 1157.05 | 2.3
303.15 K, x2 = 0.1526 | 1197 | 2.98
303.15 K, x2 = 0.2001 | 1229.97 | 3.9
303.15 K, x2 = 0.3001 | 1281.21 | 5.87
303.15 K, x2 = 0.4013 | 1318.98 | 8.14
303.15 K, x2 = 0.5004 | 1348.71 | 11.56
303.15 K, x2 = 0.5995 | 1372.86 | 15.74
303.15 K, x2 = 0.6929 | 1390.95 | 20.81
303.15 K, x2 = 0.814 | 1405.72 | 27.46
303.15 K, x2 = 0.9001 | 1424.69 | 34.24
308.15 K, x2 = 0 | 1039.85 | 1.4
308.15 K, x2 = 0.0493 | 1103.89 | 1.73
308.15 K, x2 = 0.1001 | 1151.73 | 2.13
308.15 K, x2 = 0.1526 | 1191.76 | 2.78
308.15 K, x2 = 0.2001 | 1224.72 | 3.51
308.15 K, x2 = 0.3001 | 1276.02 | 5.33
308.15 K, x2 = 0.4013 | 1313.79 | 7.28
308.15 K, x2 = 0.5004 | 1343.59 | 10.05
308.15 K, x2 = 0.5995 | 1367.78 | 13.61
308.15 K, x2 = 0.6929 | 1385.91 | 17.63
308.15 K, x2 = 0.814 | 1400.7 | 23.24
308.15 K, x2 = 0.9001 | 1419.71 | 28.09
313.15 K, x2 = 0 | 1034.33 | 1.33
313.15 K, x2 = 0.0493 | 1098.48 | 1.63
313.15 K, x2 = 0.1001 | 1146.34 | 1.99
313.15 K, x2 = 0.1526 | 1186.34 | 2.55
313.15 K, x2 = 0.2001 | 1219.4 | 3.21
313.15 K, x2 = 0.3001 | 1270.76 | 4.72
313.15 K, x2 = 0.4013 | 1308.61 | 6.41
313.15 K, x2 = 0.5004 | 1338.44 | 8.82
313.15 K, x2 = 0.5995 | 1362.65 | 11.75
313.15 K, x2 = 0.6929 | 1380.83 | 15.03
313.15 K, x2 = 0.814 | 1395.6 | 19.76
313.15 K, x2 = 0.9001 | 1414.64 | 23.76
318.15 K, x2 = 0 | 1028.79 | 1.25
318.15 K, x2 = 0.0493 | 1093.01 | 1.53
318.15 K, x2 = 0.1001 | 1140.96 | 1.86
318.15 K, x2 = 0.1526 | 1181.02 | 2.36
318.15 K, x2 = 0.2001 | 1214.09 | 2.94
318.15 K, x2 = 0.3001 | 1265.51 | 4.23
318.15 K, x2 = 0.4013 | 1303.39 | 5.76
318.15 K, x2 = 0.5004 | 1333.28 | 7.74
318.15 K, x2 = 0.5995 | 1357.54 | 10.26
318.15 K, x2 = 0.6929 | 1375.74 | 13.01
318.15 K, x2 = 0.814 | 1390.55 | 16.82
318.15 K, x2 = 0.9001 | 1409.63 | 20.35
323.15 K, x2 = 0 | 1023.19 | 1.18
323.15 K, x2 = 0.0493 | 1087.48 | 1.46
323.15 K, x2 = 0.1001 | 1135.51 | 1.72
323.15 K, x2 = 0.1526 | 1175.61 | 2.21
323.15 K, x2 = 0.2001 | 1208.72 | 2.7
323.15 K, x2 = 0.3001 | 1260.23 | 3.92
323.15 K, x2 = 0.4013 | 1298.21 | 5.18
323.15 K, x2 = 0.5004 | 1328.11 | 6.91
323.15 K, x2 = 0.5995 | 1352.41 | 9.02
323.15 K, x2 = 0.6929 | 1370.64 | 11.4
323.15 K, x2 = 0.814 | 1385.49 | 14.41
323.15 K, x2 = 0.9001 | 1404.58 | 17.27
